# In US20250304623A1, “PEPTIDES FOR INTRACELLULAR DELIVERY” (UNIVERSIDADE DE SANTIAGO DE COMPOSTELA, priority 2022, published 2025):
# Starred links: 1 amine or outer side, 2 acyl side, 3 side chain; linkers in the order of their positions; H or OH if unused. Residues, ends and D or L forms follow the SMILES beside them. Groups on a side chain read outwards from the residue. *: point of attachment. Glutaryl = O=C(CCCC(=O)[*:2])[*:1]; NHNH2 = NN*
# Assays:
# Assay type in all cases: cell-based
# [1] = test system: A549 cells; assay: RLuc pDNA delivery, robotic library screening, A549
# Protocol: (§1) Cells were seeded in a 96 well plate the day before the experiment at a concentration of 60,000 cell/mL (100 μL/w) in DMEM+10% FBS+1% Gln-Abt. For robotic library screening, the delivery of pDNA encoding for the expression of Renilla luciferase gene (RLuc, pRL-CMV (Promega, #E2261)) in six different cell lines was performed. Amphihilic molecule stock solutions in DMSO were diluted with DMEM and freshly mixed with pDNA stock solutions in DMEM prior to transfection experiments, to afford several complexes at different amphiphile concentration (2-10 μM) while maintaining a constant final pDNA concentration of 2 ng/μL. The mixture was shaken for 30 min at room temperature before the addition to the cells. The cell medium was aspirated, and cells were washed twice with PBS. Finally, 50 μL of the complex's solution were added to the cells and incubated for 4 h. After the incubation, the medium was replaced by 100 μL of fresh DMEM supplemented with 10% FBS. 72 hours after transfection the DMEM was removed, cells were washed once with HBSS and 90 μL of HBSS were added to each well. Cells were incubated at 37° C. for 30 minutes. Then basal luminescence levels were read in a plate reader. Immediately, 10 μL of coelenterazine h in HBSS were added to each well (5 μM final concentration) and cells were incubated at 37° C. for 10 minutes. Finally, the total luminescence measurement of the plates was performed. Amphiphile transfection efficiency was compared and normalized to Lipofectamine® 2000 efficiency (value of 1 in Tables 1-5 and 7; bold numbers). All experiments were done in triplicate.
# (§2) Tables 1-7: RLuc (pDNA) or EGFP (mRNA) expression levels were normalized to Lipofectamine reagents (value=1) and expressed as fold-times signal increase. In the case of siRNA, the siRNA treated cells fluorescence was compared with siMOCK control fluorescence, while Cas9-RNP mediated knockout was measured against the fluorescence of untreated cells. In both siRNA and Cas9-RNP, values are expressed as % fluorescence reduction. Amphiphile concentration was 5 μM in all cases. All experiments were performed in triplicate.
# (§3) Tables 8-13 show the mean (triplicates) luminescent intensity (RLU) measured after the transfection of RLuc pDNA by different amphiphiles at different concentrations in a variety of cell lines. Background luminescence values, accounted by untransfected control cells, were subtracted for processing.
# [2] = test system: HCT116 cells; assay: RLuc pDNA delivery, robotic library screening, HCT116
# [3] = test system: Hek293 cells; assay: RLuc pDNA delivery, robotic library screening, Hek293
# [4] = test system: Hela cells; assay: RLuc pDNA delivery, robotic library screening, HeLa
# Protocol: as §1, with “Amphihilic molecule stock solutions in DMSO were diluted with DMEM and freshly mixed with pDNA stock solutions in DMEM prior to transfection experiments, to afford several complexes at different amphiphile concentration (2-10 μM) while maintaining a constant final pDNA concentration of 2 ng/μL.” left out
# as §2, §3
# [5] = test system: Hek293 cells expressing EGFP; assay: EGFP-targeting siRNA delivery (GFP silencing vs siMOCK), Hek293
# Protocol: To generate an EGFP expressing HeLa cell line, HeLa cells were transfected with EGFP pDNA (pEGFP-C1, Clontech) and stable transfectants were selected with 400 μg/mL of G-418 (Millipore). Green clones were selected by epifluorescence microscopy and tested for EGFP expression stability through several passages. […] All other EGFP-expressing cell lines were obtained in a similar way from parent non-EGFP-expressing cell lines.
# Cells expressing EGFP were seeded in a 96 well plate the day before the experiment at a concentration of 50,000 cell/mL (100 μL/w) in DMEM+10% FBS+1% Gln-Abt. For robotic library screening, the delivery of an EGFP-targeting siRNA (EGFP: enhanced green fluorescent protein, Ambion® Silencer® GFP Positive Control siRNA (siGFP) (AM4626)) in six different cell lines expressing EGFP was performed. […] The mixture was shaken for 30 min at room temperature (rt) before the addition to the cells. The cell medium was aspirated, and cells were washed twice with PBS. Finally, 50 μL of the solution of siRNA/amphiphile complexes were added to the cells and incubated for 4 h. After transfection, the medium was replaced by 100 μL of fresh DMEM supplemented with 10% FBS. The fluorescence knockdown was quantified after 72 h in a plate reader, by comparison with cells transfected with a non-targeting siRNA control (siMOCK, Silencer™ Negative Control No. 1 siRNA (siMOCK) (AM4611)). EGFP knockdown was compared with Lipofectamine® RNAiMAX silencing efficiency (30-60% depending on cell line, defined with a numeric value in the below tables). All experiments were done in triplicate.
# as §2
# Tables 20-25 show the mean (triplicates) percentage of GFP-silencing, accounted by fluorescence intensity decrease relative to a non-targeting siRNA (siMOCK) control, measured after the transfection of siRNA by different amphiphiles at different concentrations in a variety of cell lines. Background values, accounted by untreated control cells, were subtracted for processing.
compound,measurement,setting,value
"CC(=O)N[C@@H](CCCNC(=N)N)C(=O)N[C@@H](CCCCNC(=O)CCCC(=O)NN)C(=O)N[C@@H](Cc1c[nH]cn1)C(=O)N[C@@H](CCCNC(=N)N)C(=O)N[C@@H](CCCCNC(=O)CCCC(=O)NN)C(=O)N[C@@H](CCCCNC(=O)CCCC(=O)NN)C(=O)N[C@@H](Cc1c[nH]cn1)C(N)=O [7.3(L-H), Ac-RK*HRK*K*H-NH2] (Ac-RK([Glutaryl-NHNH2])HRK([Glutaryl-NHNH2])K([Glutaryl-NHNH2])H-NH2)",mean luminescent intensity (RLuc pDNA),"[1]; Myristoleyl, 5 μM",184442 RLU
same,mean luminescent intensity (RLuc pDNA),"[1]; Myristoleyl, 10 μM",147873 RLU
same,mean luminescent intensity (RLuc pDNA),"[1]; Myristoleyl, 15 μM",31551 RLU
same,mean luminescent intensity (RLuc pDNA),"[1]; Oleyl, 5 μM",4031 RLU
same,mean luminescent intensity (RLuc pDNA),"[1]; Palmitoleyl, 5 μM",109148 RLU
same,mean luminescent intensity (RLuc pDNA),"[1]; Palmitoleyl, 10 μM",140079 RLU
same,mean luminescent intensity (RLuc pDNA),"[1]; Palmitoleyl, 15 μM",105643 RLU
same,mean luminescent intensity (RLuc pDNA),"[1]; Petroselinyl, 5 μM",94011 RLU
same,mean luminescent intensity (RLuc pDNA),"[1]; Petroselinyl, 10 μM",139603 RLU
same,mean luminescent intensity (RLuc pDNA),"[1]; Petroselinyl, 15 μM",6719 RLU
same,"pDNA delivery, times better than Lipofectamine 2000",[1]; palmitoleyl or petroselinyl aldehydes,30 times
same,mean luminescent intensity (RLuc pDNA),"[2]; Myristoleyl, 5 μM",193237 RLU
same,mean luminescent intensity (RLuc pDNA),"[2]; Myristoleyl, 10 μM",172603 RLU
same,mean luminescent intensity (RLuc pDNA),"[2]; Myristoleyl, 15 μM",42433 RLU
same,mean luminescent intensity (RLuc pDNA),"[2]; Palmitoleyl, 5 μM",294813 RLU
same,mean luminescent intensity (RLuc pDNA),"[2]; Palmitoleyl, 10 μM",248907 RLU
same,mean luminescent intensity (RLuc pDNA),"[2]; Palmitoleyl, 15 μM",89543 RLU
same,mean luminescent intensity (RLuc pDNA),"[2]; Petroselinyl, 5 μM",147949 RLU
same,mean luminescent intensity (RLuc pDNA),"[2]; Petroselinyl, 10 μM",114522 RLU
same,mean luminescent intensity (RLuc pDNA),"[2]; Petroselinyl, 15 μM",48178 RLU
same,"pDNA delivery, times better than Lipofectamine 2000",[2]; palmitoleyl aldehyde,up to 10 times
same,mean luminescent intensity (RLuc pDNA),"[3]; Myristoleyl, 5 μM",330418 RLU
same,mean luminescent intensity (RLuc pDNA),"[3]; Myristoleyl, 10 μM",145597 RLU
same,mean luminescent intensity (RLuc pDNA),"[3]; Myristoleyl, 15 μM",36468 RLU
same,mean luminescent intensity (RLuc pDNA),"[3]; Palmitoleyl, 5 μM",294438 RLU
same,mean luminescent intensity (RLuc pDNA),"[3]; Palmitoleyl, 10 μM",191190 RLU
same,mean luminescent intensity (RLuc pDNA),"[3]; Palmitoleyl, 15 μM",87323 RLU
same,mean luminescent intensity (RLuc pDNA),"[3]; Petroselinyl, 5 μM",286371 RLU
same,mean luminescent intensity (RLuc pDNA),"[3]; Petroselinyl, 10 μM",237379 RLU
same,mean luminescent intensity (RLuc pDNA),"[3]; Petroselinyl, 15 μM",157061 RLU
same,mean luminescent intensity (RLuc pDNA),"[4]; HeLa, Petroselinyl, 10 μM",107063 RLU
same,mean luminescent intensity (RLuc pDNA),"[4]; Hela, Myristoleyl, 5 μM",122581 RLU
same,mean luminescent intensity (RLuc pDNA),"[4]; Hela, Myristoleyl, 10 μM",115599 RLU
same,mean luminescent intensity (RLuc pDNA),"[4]; Hela, Myristoleyl, 15 μM",25022 RLU
same,mean luminescent intensity (RLuc pDNA),"[4]; Hela, Palmitoleyl, 5 μM",226412 RLU
same,mean luminescent intensity (RLuc pDNA),"[4]; Hela, Palmitoleyl, 10 μM",180751 RLU
same,mean luminescent intensity (RLuc pDNA),"[4]; Hela, Palmitoleyl, 15 μM",31589 RLU
same,mean luminescent intensity (RLuc pDNA),"[4]; Hela, Petroselinyl, 5 μM",282134 RLU
same,mean luminescent intensity (RLuc pDNA),"[4]; Hela, Petroselinyl, 15 μM",13233 RLU
same,percentage of GFP-silencing relative to siMOCK,"[5]; Dodecanal, 15 μM",14%
same,percentage of GFP-silencing relative to siMOCK,"[5]; Myristoleyl, 5 μM",−3%
same,percentage of GFP-silencing relative to siMOCK,"[5]; Palmitoleyl, 10 μM",6%
"Ac-RRLK*RLLRRLK*RL-NH2 (Ac-RRLK(NHNH2)RLLRRLK(NHNH2)RL-NH2; not fully specified; printed as Ac-RRLK*RLLRRLK*RL-NH2; also: K*4,K*11: native or modified lysine (ε-amide to a linker)) [Peptide 13.2]",mean luminescent intensity (RLuc pDNA),"[1]; Oleyl, 5 μM",2368 RLU
same,mean luminescent intensity (RLuc pDNA),"[1]; Oleyl, 10 μM",1152 RLU
same,mean luminescent intensity (RLuc pDNA),"[1]; Oleyl, 15 μM",1367 RLU
same,mean luminescent intensity (RLuc pDNA),"[2]; Oleyl, 5 μM",15723 RLU
same,mean luminescent intensity (RLuc pDNA),"[2]; Oleyl, 10 μM",2338 RLU
same,mean luminescent intensity (RLuc pDNA),"[2]; Oleyl, 15 μM",1593 RLU
same,mean luminescent intensity (RLuc pDNA),"[3]; Oleyl, 5 μM",83689 RLU
same,mean luminescent intensity (RLuc pDNA),"[3]; Oleyl, 10 μM",22447 RLU
same,mean luminescent intensity (RLuc pDNA),"[3]; Oleyl, 15 μM",7233 RLU
same,percentage of GFP-silencing relative to siMOCK,"[5]; Oleyl, 10 μM",−7%
same,percentage of GFP-silencing relative to siMOCK,"[5]; Oleyl, 15 μM",17%
